Measured values taken from patent US9828344B2, “Inhibitors of the notch signaling pathway and secretion for use in medicine” (Leibniz-Institut für Altersforschung Fritz-Lipmann-Institut …, priority 2012, dated 2017).
Peptide text beside a SMILES is read from it. * marks the point of attachment. Cbz = O=C(OCc1ccccc1)*; OtBu = CC(C)(C)O*

Assays:
[1] = system: NotchΔE-EGFP; test: Reporter localization in U2OS cells stably expressing NotchΔE-EGFP; format: cell-based; conditions: 10 iM, 18 h
Method: FIG. 9: Compound effects are not cell-type specific. U2OS cells stably expressing NotchΔE-EGFP were incubated for 18 h with 10 iM compounds as indicated, fixed and imaged by fluorescence microscopy. […] Arrows, plasma membrane; arrowheads, ER. Asterisks indicate cells where the ER collapsed to large aggregates. Scalebar, 10 im.

[2] = system: NotchΔE-EGFP; test: Fluorescence microscopy of reporter localization in HeLa NotchΔE-EGFP cells; format: cell-based; conditions: for localization of NotchΔE-EGFP/NICD-EGFP: 10 μM compound, 24 h; for toxicity in cells: inferred from reversibility after wash-out
Method: FIG. 10: Phenotypes of Notch inhibitors are fully reversible. HeLa NotchΔE-EGFP cells plated in LabTek coverglass were incubated for 18 h with 10 iM of indicated compounds, washed and incubated for indicated times in cell culture medium. Cells were imaged by live-microscopy. […] Scalebar, 10 im.
For a detailed analysis of subcelluar distribution of NotchΔE/NICD the resolution of the HCS images was not sufficient. Therefore, the reporter cell line was plated on coverslips and incubated with 10 μM of individual compounds from the final hit list. After 24 h the localization of NotchΔE-EGFP/NICD-EGFP was determined by fluorescence microscopy. […] (FIG. 8).
Immunofluorescence stainings were made using standard procedures^55. Imaging was performed on a Zeiss Axiovert200 or an Axio Imager, using 63× 1.4NA objectives and Zeiss Axiovision software. For live-imaging cells were plated on Lab-Tek chambered coverglass (Thermo-Fisher). Images were assembled and processed using Adobe Photoshop. For displaying weakly stained ER-tubules/sheets non-linear changes in gamma-settings were used.

[3] = system: γ-secretase; test: In vitro γ-secretase assay with isolated membranes; format: biochemical; conditions: 37° C.
Method: FIG. 3: Effect of compounds on NotchΔE-EGFP, APP and Klotho trafficking and processing. a) HEK293 stably expressing APPswe or Klotho (KI) were incubated with DAPT or compounds (10 μM) for 16 h. Media were collected, cells lysed and both assayed by Western blotting using indicated antibodies. m, mature; im, immature; s, shedded ectodomain; CTF, C-terminal fragment. b) Membranes from HeLa-NotchΔE-EGFP and APPswe cells were isolated and subjected to a γ-secretase in vitro assay in the presence of DAPT or compounds as indicated. NICD and AICD were detected by Western Blotting using antibodies against the C-terminus of APP (top) or antibodies specific for NICD (bottom). c) Quantitation from 5 independent experiments.
To test whether FLI-06 affected other membrane proteins, Klotho, a type I protein processed like APP and Notch^20, was analyzed. […] To analyze γ-secretase activity, in vitro assays using isolated membranes were performed (FIG. 3b, c). Production of NICD-EGFP and AICD (APP intracellular domain) were assayed. Both were produced in vitro at 37° C. but not at 4° C., and their production was inhibited by DAPT.
For assaying AICD formation, membranes of HEK293 cells stably expressing APP with the Swedish mutation were isolated and incubated for 4 h at 37° C. according to Sastre et al.^52. For assaying NICD formation, membranes from HeLa NotchΔE-EGFP cells were mixed with membranes from HeLa NotchΔE-EGFP cells that were pre-treated with 10 μM DAPT overnight to enrich substrate. After incubation samples were loaded onto either 8% SDS-PA gels (NICD) or 10-20% Tris-Tricine gels (AICD), blotted and probed with cleaved-Notch antibody or antibody 6687 against APP C-terminus^53. Chemoluminescence was quantified on a LAS-4000 (Fuji) with MultiGauge software.

[4] = system: endogenous Notch signaling; test: Luciferase Notch reporter assay in C2C12 cells transfected with Delta; format: cell-based; conditions: 16 h
Method: Cells were incubated with DAPT or 10 μM of the indicated compounds (50 μM in case of FLI-15 and -20) and after 16 h a luciferase assay was performed. […] Changes in relative gene expression levels (fold change) relative to the expression levels in DMSO controls are represented as the mean+/−SD, asterisks indicate p<0.01. Each measurement was taken from two independent samples. Each reaction was measured in triplicate. Changes in the relative expression of ngn1 were standardized to the expression of the housekeeping gene ef1a at 20 hpf. c) ISH with riboprobes specific for ngn1 was performed on dechorionated stage 4 hpf zebrafish embryos. Anterior is to the left, dorsal to the top. Magnifications of the somite region (small box) are shown. Arrows indicate larger ngn1 clusters or stronger ngn1 staining. s, sensory neurons; i, intermediate neurons; m, motor neurons.
We wanted to test whether the results obtained with the NotchΔE-EGFP construct are relevant for endogenous Notch signaling. Therefore we made use of C2C12 cells, a well established model for muscle development that expresses endogenous Notch^21,22. After stimulating endogenous Notch signaling by transfecting the Notch ligand Delta, Notch activity was measured by a luciferase assay using a Notch reporter^15 in the presence or absence of compounds (FIG. 4a). […] Next, we tested whether selected compounds would affect Notch signaling in vivo. […] Compounds were added to dechorionated stage 4 hpf zebrafish embryos and the effects were analyzed after 24 h by morphological inspection of somite formation. Phenotypes were ranked to four categories, normal somites, mild somite defects, strong somite defects and developmental delay. […] As an additional parameter we decided to analyze Notch-dependent genes involved in neurogenesis. Primary neurogenesis in zebrafish involves the selection of neuroblasts (repressed by Notch) from proneural clusters (Notch expressing cells), a process regulated in a negative manner by Notch-dependent lateral inhibition^25. Accordingly, neuroblast cells that express the neuronal specification factor neurogenin (ngn1^26) became more abundant when Notch signaling was impaired, for instance upon DAPT treatment^23,27. qPCR analyses on mRNA extracted from equivalent sets of embryos was performed for ngn1 expression (FIG. 4b). […] To confirm the data obtained by qPCR, whole-mount in-situ hybridizations (ISH) using an ngn1 specific riboprobe were performed (FIG. 4c, FIG. 11c). […] Taken together, FLI-06, -14, -15, -19 and -20 inhibited endogenous Notch signaling in vitro and in vivo, corroborating the NotchΔE-EGFP reporter data.
Endogenous Notch signaling in C2C12 was determined by a luciferase assay using a 12xCSL-luciferase reporter and transfected Delta as described before^15.

[5] = system: NotchΔE-EGFP; test: Fluorescence microscopy of reporter localization in HeLa NotchΔE-EGFP cells; format: cell-based; conditions: 50 μM compound

Compound	localization of NotchΔE-EGFP in U2OS cells [1]	localization of NotchΔE-EGFP/NICD-EGFP [2]	toxicity in cells [2]	NICD-EGFP and AICD production in isolated membranes [3]	inhibition of endogenous Notch signaling ([4]; 10 μM)	localization of NotchΔE-EGFP/NICD-EGFP [5]	inhibition of endogenous Notch signaling ([4]; 50 μM)
CC1=C(C(=O)OC2CCCCC2)C(c2ccc([N+](=O)[O-])cc2)C2=C(CC(C)(C)CC2=O)N1 (stereo not shown) [FLI-06, Cyclohexyl 4-(4′-nitrophenyl)-2,7,7-trimethyl-5-oxo-1,4,5,6,7,8-hexahydroquinoline-3-carboxylate]	ER accumulation of the reporter and in some cells aggregation	reduced nuclear fluorescence and localization in intracellular membranes	not acutely toxic in cells	did not affect γ-secretase in isolated membranes	strongly		
Cn1c2ccccc2c2c(C(=O)N3CCN(Cc4ccc5c(c4)OCO5)CC3)cn(C3CCCC3)c(=O)c21 [FLI-14]	PM accumulation similar to DAPT	accumulation of the reporter at the PM and in perinuclear Golgi-like structures	not acutely toxic in cells	did not affect γ-secretase in isolated membranes	strongly	strong reduction of nuclear NICD-EGFP fluorescence and concomitant accumulation at the PM	
Cc1ccc(NC(=O)C(NS(=O)(=O)c2cccc3nsnc23)C(C)C)nc1 (stereo not shown) [FLI-15]	PM accumulation similar to DAPT	accumulation of the reporter at the PM and in perinuclear Golgi-like structures	not acutely toxic in cells	clearly reduced NICD-EGFP and AICD production	hardly affected Notch signaling	strong reduction of nuclear NICD-EGFP fluorescence and concomitant accumulation at the PM	remarkably
CC(C)CC(NC(=O)C(Cc1ccccc1)NC(=O)C1CCCN1C(=O)OCc1ccccc1)C(=O)OC(C)(C)C (stereo not drawn) [FLI-19] (Cbz-Pro-Phe-Leu-OtBu; configuration not given here)	PM accumulation similar to DAPT	accumulation of the reporter at the PM and in perinuclear Golgi-like structures	not acutely toxic in cells	did not affect γ-secretase in isolated membranes	considerably	strong reduction of nuclear NICD-EGFP fluorescence and concomitant accumulation at the PM	
CC(=O)Nc1ccc2nc(NC(=O)CC34CC5CC(CC(C5)C3)C4)sc2c1 [FLI-20]	PM accumulation similar to DAPT	accumulation of the reporter at the PM and in perinuclear Golgi-like structures	not acutely toxic in cells	clearly reduced NICD-EGFP and AICD production	hardly affected Notch signaling	strong reduction of nuclear NICD-EGFP fluorescence and concomitant accumulation at the PM	remarkably
